Laboratory results from PMC10815831, “Comparison of Nuclear Medicine Therapeutics Targeting PSMA among Alpha-Emitting Nuclides” (International Journal of Molecular Sciences, 2024).

Assays:
[1] = target: T1, prostate specific membrane antigen (PSMA) (Homo sapiens, UniProt Q04609); experiment: radioligand uptake in LNCaP (PSMA-high) cells, competition by unlabeled PSMA-617; PC3 (PSMA-low) as control; format: cell-based
T1 construct: gene FOLH1

[2] = target: T1, prostate specific membrane antigen (PSMA); experiment: radioligand uptake in LNCaP (PSMA-high) cells, competition by unlabeled compound; PC3 (PSMA-low) as control; format: cell-based

T1 sequence (Q04609 whole entry): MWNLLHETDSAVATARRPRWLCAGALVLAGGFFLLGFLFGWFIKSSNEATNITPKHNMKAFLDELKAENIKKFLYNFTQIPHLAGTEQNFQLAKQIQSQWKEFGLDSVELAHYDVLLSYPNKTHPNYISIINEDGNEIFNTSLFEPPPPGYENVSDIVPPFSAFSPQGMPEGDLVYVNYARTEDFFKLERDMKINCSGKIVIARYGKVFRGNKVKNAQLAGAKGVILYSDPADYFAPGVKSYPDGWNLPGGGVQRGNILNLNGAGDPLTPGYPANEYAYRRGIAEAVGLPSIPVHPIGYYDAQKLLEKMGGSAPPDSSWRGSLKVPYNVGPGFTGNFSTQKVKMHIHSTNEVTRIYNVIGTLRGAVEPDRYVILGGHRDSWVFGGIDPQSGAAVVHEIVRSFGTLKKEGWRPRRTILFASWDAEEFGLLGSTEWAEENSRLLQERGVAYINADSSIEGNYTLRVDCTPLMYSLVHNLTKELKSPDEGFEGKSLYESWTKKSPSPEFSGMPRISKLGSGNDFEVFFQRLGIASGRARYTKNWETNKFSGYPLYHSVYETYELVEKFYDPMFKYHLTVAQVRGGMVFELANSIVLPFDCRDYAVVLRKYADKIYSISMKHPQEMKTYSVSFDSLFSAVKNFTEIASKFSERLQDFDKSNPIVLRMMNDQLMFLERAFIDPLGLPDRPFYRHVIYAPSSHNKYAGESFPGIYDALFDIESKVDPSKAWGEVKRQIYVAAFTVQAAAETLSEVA

Row | Compound | IC50 [1] [nM] | IC50 [2] [nM]
1 | O=C([O-])CN1CCN(CC(=O)[O-])CCN(CC(=O)NCC2CCC(C(=O)NC(Cc3ccc4ccccc4c3)C(=O)NCCCC[C@H](NC(=O)N[C@@H](CCC(=O)O)C(=O)O)C(=O)O)CC2)CCN(CC(=O)[O-])CC1.[225Ac+3] (some centres unmarked) [225Ac-PSMA-617] | 2.64 | –
2 | O=C(O)CC[C@H](NC(=O)N[C@@H](CCCCNC(=O)[C@@H](Cc1ccc2ccccc2c1)NC(=O)c1ccc(CNC(=O)[C@@H](CCC(=O)O)NC(=O)[C@@H](CCC(=O)O)NC(=O)Cc2ccc([211At])cc2)cc1)C(=O)O)C(=O)O [211At-PSMA-5] | – | 0.32
